The text below walks through data of US12410211B2, “V1A receptor partial agonist and method of use” (PharmaIN Corporation, priority 2020, dated 2025).

Data set [1] can be described thus: Acute diuretic activity of Tolvaptan and peptides of Formula (II) and (IV) in Wistar rats (Example 6). It counts as in vivo. The method, then: In this study, Male Wistar Rats (˜8 weeks; Envigo; Somerset, NJ) were fasted overnight (18 hours; free access to water) followed by treatment with saline at 20 ml/Kg via oral gavage to have a uniform hydration of all the animals. The animals were then treated with various concentrations of test articles administered subcutaneously (n=4) (Table 5). Control dosed vehicle group (9% tween 80; Fisher Scientific, Waltham MA) administered subcutaneously was included and the resulting data was subtracted from individual test article data. After the dose, animals were placed in the metabolic cage (Tecniplast; Province of Varese, Italy) and urine was collected and measured at 2, 4 and 8 hours after the dosing of test articles. Urine volumes were divided by the body weight (pre-dose) times 100 to express in ml/100 g body weight. […] However, at any ratio, a tolvaptan dose of about 0.3 mg/Kg (i.e., 0.3+0.05 mg/Kg) administered in rats (allometrically equivalent to about 2-7 mg/human depending on persons weight) is an ideal dose that when combined with the composition of the present disclosure provides greater than 50% of the sum of individual diuretic effect administered alone. Low dose of 0.3 mg/Kg of subcutaneous tolvaptan is considered to be 13-fold below the effective safe human dose thus providing additional advantage to patients with liver disease. This can increase mean arterial blood pressure (MAP) which is a V1a effect caused by composition of the present disclosure while maintaining significant (at least 50% of the sum of individual diuretic effect administered alone) of both.

The conditions of data set [2]: cited from earlier work.
The nature of data set [3]: Therapeutic index (NOAEL/NOEL): paleness, lethargy, ataxia observation in Sprague-Dawley rats (Example 7). It counts as in vivo. The gist of the method: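 Male Sprague-Dawley rats, 8–10 weeks, under isoflurane (n=3 or 6), dosed IV or SC with test articles. Paleness judged by ear colour beside untreated controls; lethargy and ataxia scored by observation. Index expressed as NOAEL/NOEL ratio.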

Data set [4] is described as follows: Acute diuretic activity of Terlipressin, Tolvaptan and combinations in Wistar rats (Example 5). It counts as in vivo. The method, then:
The animals were then treated with Terlipressin (Bachem, Torrance CA), Tolvaptan (Fisher Scientific, Waltham, MA) and combination of the two compounds at various concentrations administered subcutaneously (n=4). Test articles were Terlipressin 0.05 mg/Kg and 0.15 mg/Kg, Tolvaptan 0.3 mg/Kg, and 1.0 mg/Kg, Terlipressin 0.05 mg/Kg+Tolvaptan 0.3 mg/Kg, Terlipressin 0.05 mg/Kg+Tolvaptan 1.0 mg/Kg, Terlipressin 0.15 mg/Kg+Tolvaptan 0.3 mg/Kg, and Terlipressin 0.15 mg/Kg+1.0 mg/Kg. Furosemide (Fisher Scientific, Waltham, MA) was used as positive control and dosed at 20 mg/kg via oral gavage. Control dosed vehicle group (9% tween 80; Fisher Scientific, Waltham MA) administered subcutaneously was included and the resulting data was subtracted from individual test article data. After the dose, animals were placed in the metabolic cage (Tecniplast; Province of Varese, Italy) and urine was collected and measured at 2, 4 and 8 hours after the dosing of test articles. Urine volumes were divided by the body weight (pre-dose) times 100 to express in ml/100 g body weight.

The next data set addresses T1, V1a receptor (Homo sapiens, UniProt P37288).
T1 construct: host or cells: CHO cells
Description: V1a Human Vasopressin GPCR Cell Based Agonist Calcium Flux Assay. The note with it: for Emax: read-out: V1a Highest agonist effect (% of AVP). In general terms: Calcium assays in cells follow changes in intracellular calcium, usually with a dye or a luminescent sensor.

Data set [5] in a line: Telemetric evaluation of portal vein pressure in rats with bile duct ligation (Example 9). It counts as in vivo, Sprague Dawley rats. The note with it: for Percent decrease (%) in Mean Portal Vein Pressure (MPVP) from BDL baseline prior to treatment: BDL rats n = 4, 12 μg/kg subcutaneous. As for the experimental part: For this study, animals (Sprague Dawley rats (240-300 g at surgery from Charles River Laboratory) were maintained at room temperatures (20 to 22° C.) with 14-hour light, 10-hour dark cycle when not performing study procedures. The mean portal vein pressure (MPVP) reduction efficacy of a peptide of Formula ([…] [SEQ ID NO. 13]; Mpa and C are disulfide bonded; represented as TA-1) was compared to terlipressin in telemetered male with Bile Duct Ligation (BDL) and Sham surgery. On Study Day 1, rats received bile duct ligation surgery and telemetry implantation. The BDL group (n=4) had two stands of silk suture tightened and tied to occlude the bile duct; the sham group (n=3) had sutures loosely tied around the bile duct so that no occlusion occurred. After recovery from surgery, all rats had their portal vein pressure monitored continuously via telemetry until Day 22. […] Terlipressin was administered through intravenous bolus into a lateral tail vein on Day 20 and 21. All animals were dosed under manual restraint. Systolic portal vein pressure and diastolic portal vein pressure were measured to calculate the Mean Portal Vein Pressure ([…] was analyzed by averaging 5 minute intervals for the first 4 hours after dose and thereafter averaging 1 hour intervals after dose until 24 hours. […] Telemetric evaluation of […] [SEQ ID NO. 13] and Terlipressin on portal vein pressure in rats with bile duct ligation. The animal room temperatures were set to maintain 20 to 22° C. A 14-hour light, 10-hour dark cycle was implemented unless interrupted by study procedures. Efficacy was assessed by evaluating mean portal vein pressure (MPVP) at different concentrations of Formula 1 and Terlipressin in telemetered male Sprague Dawley rats (240-300 g at surgery from Charles River Laboratory) with Bile Duct Ligation (BDL) and Sham surgery. On Study Day 1, rats received bile duct ligation surgery and telemetry implantation. The BDL group (n=4) had two stands of silk suture tightened and tied to occlude the bile duct; the sham group (n=3) had sutures loosely tied around the bile duct so that no occlusion occurred. After recovery from surgery, all rats had their portal vein pressure monitored continuously via telemetry until Day 22. […] Formula 1 was administered at different concentrations subcutaneously on Day 15 to 19, and Day 23; Terlipressin was administered through intravenous bolus into a lateral tail vein on Day 20 and 21. All animals were dosed under manual restraint. Systolic portal vein pressure and diastolic portal vein pressure were measured to calculate the Mean Portal Vein Pressure ([…] was analyzed by averaging 5 minute intervals for the first 4 hours after dose and thereafter averaging 1 hour intervals after dose until 24 hours.

Where [6] appears, read: peptide alone 0.015 mg/kg subcutaneous.
The mark [7] stands for this setting: peptide alone 0.05 mg/kg subcutaneous.
The mark [8] stands for this setting: S.C., at the Marked adverse effect dose.
Setting [9] is: S.C., at the Mild adverse effect dose.

Like-named read-outs stand apart in the source and are kept apart here. Marks after values point to notes of the source that are not given here.

T1 sequence (P37288 whole entry): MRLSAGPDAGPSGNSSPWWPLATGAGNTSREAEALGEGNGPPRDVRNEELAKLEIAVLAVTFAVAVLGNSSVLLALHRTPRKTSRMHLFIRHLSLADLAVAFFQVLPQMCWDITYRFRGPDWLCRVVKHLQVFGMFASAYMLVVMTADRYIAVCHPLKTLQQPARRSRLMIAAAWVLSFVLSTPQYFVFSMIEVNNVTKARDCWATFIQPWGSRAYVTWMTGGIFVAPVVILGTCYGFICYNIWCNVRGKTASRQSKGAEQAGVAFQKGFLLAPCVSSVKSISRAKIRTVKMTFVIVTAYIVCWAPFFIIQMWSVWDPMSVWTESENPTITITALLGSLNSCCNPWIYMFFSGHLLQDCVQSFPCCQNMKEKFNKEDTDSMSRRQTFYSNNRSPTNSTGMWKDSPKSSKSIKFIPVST

Regarding “Mpa-Tyr-Phe-Gln-Asn-Cys-Pro-Lys(X)a-Gly-NH2; (X)a = (Gly)5 [SEQ ID NO. 33]”, the “Average 8 hours cumulative Urine Volume: mL per 100 gram body weight (SEM; n = 4) minus Tween 80 vehicle group” value is recorded as 1.11 (0.11) mL per 100 gram body weight in data set [1] (setting [6]), 1.32 (0.09) mL per 100 gram body weight in data set [1] (setting [7]) and 1.85 (0.20) mL per 100 gram body weight in data set [1] (peptide alone 0.15 mg/kg subcutaneous).

As for `NC(=O)CC[C@@H]1NC(=O)[C@H](Cc2ccccc2)NC(=O)[C@H](Cc2ccc(O)cc2)NC(=O)[C@@H](N)CSSC[C@@H](C(=O)N2CCC[C@H]2C(=O)N[C@@H](CCCN=C(N)N)C(=O)NCC(N)=O)NC(=O)[C@H](CC(N)=O)NC1=O` [Vasopressin], in data set [2] (in vivo), the “excreted through the kidney” value is given as 65%; the “metabolized by liver and kidney vasopressinases” value is 35%; the protein binding entry was “not protein-bound”. Also, the volume of distribution in data set [2] (plasma) is 0.14 L/kg.

For orientation: half-life means the time in which the quantity being followed falls by half. Consider `NC(=O)CC[C@@H]1NC(=O)[C@H](Cc2ccccc2)NC(=O)[C@H](Cc2ccc(O)cc2)NC(=O)CCSSC[C@@H](C(=O)N2CCC[C@H]2C(=O)N[C@H](CCCN=C(N)N)C(=O)NCC(N)=O)NC(=O)[C@H](CC(N)=O)NC1=O` [desmopressin], for which the half-life in data set [2] (in vivo) is 2 h.

A word on the NOAEL: it is the highest dose or exposure tested at which no adverse effect was seen. With `NCCCC[C@H](NC(=O)[C@@H]1CCCN1C(=O)[C@@H]1CSSCCC(=O)N[C@@H](Cc2ccc(O)cc2)C(=O)N[C@@H](Cc2ccccc2)C(=O)N[C@@H](CCC(N)=O)C(=O)N[C@@H](CC(N)=O)C(=O)N1)C(=O)NCC(N)=O` [SEQ ID NO. 32], the “Average 8 hours cumulative Urine Volume: mL per 100 gram body weight (SEM; n = 4) minus Tween 80 vehicle group” value in data set [1] (peptide alone 0.005 mg/kg subcutaneous) is given as 0.80 (0.50) mL per 100 gram body weight; in data set [1] (setting [6]), 0.86 (0.28) mL per 100 gram body weight; in data set [1] (setting [7]) it was 0.74 (0.55) mL per 100 gram body weight. For the same molecule, the “Paleness (Duration, hrs; SD)” value in data set [3] (setting [8]) was “(4.79 ± 0.08) hrs”; in data set [3] (setting [9]) it was “(4.45 ± 0.26) hrs”; in data set [3] (S.C., at the NOAEL dose), “(3.54 ± 0.11) hrs”; in data set [3] (S.C., at the NOEL dose) it was “None observed”. In data set [3] (S.C., rat), the “Highest dose with no-observed effect level or paleness (NOEL)” value was found to be 0.0005 mg/kg. The “NOAEL/NOEL (therapeutic index)” value in data set [3] (S.C., rat) turned out to be 20. Also, the NOAEL in data set [3] (in vivo, sc, S.C., rat, read-out: Highest dose with no-observed adverse effect level without lethargy (NOAEL)) was found to be 0.01 mg/kg. For the same molecule, the “Marked adverse effect (Lowest dose first showed Ataxia)” value in data set [3] (rat, in vivo, sc) was determined as 0.1 mg/kg. In addition, in data set [3] (rat, in vivo, sc), the “Mild adverse effect (Lowest dose first showed Lethargy)” value was determined as 0.03 mg/kg.

Consider `NS(=O)(=O)c1cc(C(=O)O)c(NCc2ccco2)cc1Cl` [Furosemide], for which the “Average mL of Urine per 100 gram body weight 8 hours cumulative (n = 4) minus Vehicle group (Tween 80); (SEM)” value in data set [4] (Furosemide 20 mg/kg oral gavage (positive control)) was 1.73 (0.22) mL per 100 gram body weight.

The EC50 is the midpoint of the concentration-response curve. Turning to `NCCCC[C@H](NC(=O)[C@@H]1CCCN1C(=O)[C@@H]1CSSC[C@H](N)C(=O)N[C@@H](Cc2ccc(O)cc2)C(=O)N[C@@H](Cc2ccccc2)C(=O)N[C@@H](CCC(N)=O)C(=O)N[C@@H](CC(N)=O)C(=O)N1)C(=O)NCC(N)=O` [Lysine vasopressin (LVP), Lysine vasopressin, reference compound], the plasma half-life in data set [2] (in vivo) was 0.833 h. In addition, the EC50 on V1a receptor (Table 3, CHO cells expressing human V1 receptor, read-out: Estimated V1a EC50 (nM), n = 2) was 1.65 nM. For the same molecule, the Emax at V1a receptor (Table 3, n = 2) was 92.1%. Moreover, the “V1a Highest agonist effect (% of AVP); n = 2” value on V1a receptor (Table 4) is 92.1 % of AVP.

As to `NCC(=O)NCC(=O)NCC(=O)NCC(=O)NCC(=O)NCC(=O)NCCCC[C@H](NC(=O)[C@@H]1CCCN1C(=O)[C@@H]1CSSCCC(=O)N[C@@H](Cc2ccc(O)cc2)C(=O)N[C@@H](Cc2ccccc2)C(=O)N[C@@H](CCCC(N)=O)C(=O)N[C@@H](CC(N)=O)C(=O)N1)C(=O)NCC(N)=O` [SEQ ID NO. 13, Mpa-Tyr-Phe-Hgn-Asn-Cys-Pro-Lys(X)a-Gly-NH2; (X)a = (Gly)6], the Emax on V1a receptor (n = 2) is 28.2%. Besides, the “Paleness (Duration, hrs; SD)” value is “(>5.6)* hrs” in data set [3] (setting [8]); “(6.23 ± 0.06) hrs” in data set [3] (setting [9]); “(6.07 ± 0.08) hrs” in data set [3] (S.C., at the NOAEL dose); “None observed” in data set [3] (S.C., at the NOEL dose). The “Highest dose with no-observed effect level or paleness (NOEL)” value in data set [3] (S.C., rat) amounted to 0.003 mg/kg. Moreover, in data set [3] (male, Sprague-Dawley, in vivo, sc, S.C., rat, read-out: Highest dose with no-observed adverse effect level without lethargy (NOAEL)), the NOAEL at 24 h stood at 0.3 mg/kg. For the same molecule, the “Marked adverse effect (Lowest dose first showed Ataxia)” value in data set [3] (rat, in vivo, sc) amounted to 5.0 mg/kg. Also, the “Mild adverse effect (Lowest dose first showed Lethargy)” value in data set [3] (rat, in vivo, sc) worked out at 0.5 mg/kg. The “drop in portal pressure compared to Terlipressin (41 ug/kg)” value in data set [5] (12 ug/kg dose, BDL rats) is given as “more effective in providing a sustain drop in portal pressure”. The “Percent decrease (%) in Mean Portal Vein Pressure (MPVP) from BDL baseline prior to treatment” value is given as 5% in data set [5] (Time 1 hr), −30.5% in data set [5] (Time 4 hr), −10.5% in data set [5] (Time 7 hr) and −29.75% in data set [5] (Time 20 hr).

Turning to `Cc1ccccc1C(=O)Nc1ccc(C(=O)N2CCCC(O)c3cc(Cl)ccc32)c(C)c1` (stereo not drawn) [Tolvaptan], the “Average mL of Urine per 100 gram body weight 8 hours cumulative (n = 4) minus Vehicle group (Tween 80); (SEM)” value is 0.65 (0.16) mL per 100 gram body weight in data set [4] (Tolvaptan 0.3 mg/Kg subcutaneous) and 7.29 (0.46) mL per 100 gram body weight in data set [4] (Tolvaptan 1.0 mg/Kg subcutaneous). The “Average 8 hours cumulative Urine Volume: mL per 100 gram body weight (SEM; n = 4) minus Tween 80 vehicle group” value in data set [1] (Tolvaptan 0.3 mg/kg subcutaneous) is on record as 0.65 (0.16) mL per 100 gram body weight.
